Results reported in the kinase profiling compilation of Christmann-Franck et al. (2016).
Each block holds one compound with its values, some of them ahead of it.

Experiments:
Test in all cases: radiometric filter-binding kinase assay, Kinase HotSpot
Details in all cases: compound 0.5 µM; ATP 10 µM
CHUK (human) = CHUK (human) (UniProt O15111)
MKNK2 (human) = MKNK2 (human) (UniProt Q9HBH9)
HIPK2 (human) = HIPK2 (human) (UniProt Q9H2X6)
EPHB2 (human) = EPHB2 (human) (UniProt P29323)
CAMKK2 (human) = CAMKK2 (human) (UniProt Q96RR4)
MAPK10 (human) = MAPK10 (human) (UniProt P53779)
MATK (human) = MATK (human) (UniProt P42679)
TAOK3 (human) = TAOK3 (human) (UniProt Q9H2K8)
CDK7 CCNH MNAT1 (human) = CDK7 CCNH MNAT1 (human) (UniProt P50613+P51948+P51946)
ERBB4 (human) = ERBB4 (human) (UniProt Q15303)
GRK5 (human) = GRK5 (human) (UniProt P34947)
STK38 (human) = STK38 (human) (UniProt Q15208)
INSRR (human) = INSRR (human) (UniProt P14616)
CSNK1A1 (human) = CSNK1A1 (human) (UniProt P48729)
CDC42BPA (human) = CDC42BPA (human) (UniProt Q5VT25)
NEK1 (human) = NEK1 (human) (UniProt Q96PY6)
AKT3 (human) = AKT3 (human) (UniProt Q9Y243)
PTK6 (human) = PTK6 (human) (UniProt Q13882)
CSNK1G2 (human) = CSNK1G2 (human) (UniProt P78368)
CDK3 CCNE1 (human) = CDK3 CCNE1 (human) (UniProt Q00526+P24864)
GRK7 (human) = GRK7 (human) (UniProt Q8WTQ7)
STK24 (human) = STK24 (human) (UniProt Q9Y6E0)
RPS6KA1 KD1 KD2 (human) = RPS6KA1 KD1 KD2 (human) (UniProt Q15418)
ULK3 (human) = ULK3 (human) (UniProt Q6PHR2)
GRK6 (human) = GRK6 (human) (UniProt P43250)
DYRK2 (human) = DYRK2 (human) (UniProt Q92630)
TEC (human) = TEC (human) (UniProt P42680)
PLK2 (human) = PLK2 (human) (UniProt Q9NYY3)
PRKACG (human) = PRKACG (human) (UniProt P22612)
PHKG1 (human) = PHKG1 (human) (UniProt Q16816)
TAOK2 (human) = TAOK2 (human) (UniProt Q9UL54)
EPHA6 (human) = EPHA6 (human) (UniProt Q9UF33)
MARK1 (human) = MARK1 (human) (UniProt Q9P0L2)
HIPK1 (human) = HIPK1 (human) (UniProt Q86Z02)
NUAK1 (human) = NUAK1 (human) (UniProt O60285)
TTK (human) = TTK (human) (UniProt P33981)
CAMK2D (human) = CAMK2D (human) (UniProt Q13557)
TLK2 (human) = TLK2 (human) (UniProt Q86UE8)
PAK6 (human) = PAK6 (human) (UniProt Q9NQU5)
CAMK1D (human) = CAMK1D (human) (UniProt Q8IU85)
[1] = biological target: JAK1 JH1 catalytic (human) (UniProt P23458)
EGFR (human) = EGFR (human) (UniProt P00533)

INSRR (human), sequence (P14616 whole entry, looked up): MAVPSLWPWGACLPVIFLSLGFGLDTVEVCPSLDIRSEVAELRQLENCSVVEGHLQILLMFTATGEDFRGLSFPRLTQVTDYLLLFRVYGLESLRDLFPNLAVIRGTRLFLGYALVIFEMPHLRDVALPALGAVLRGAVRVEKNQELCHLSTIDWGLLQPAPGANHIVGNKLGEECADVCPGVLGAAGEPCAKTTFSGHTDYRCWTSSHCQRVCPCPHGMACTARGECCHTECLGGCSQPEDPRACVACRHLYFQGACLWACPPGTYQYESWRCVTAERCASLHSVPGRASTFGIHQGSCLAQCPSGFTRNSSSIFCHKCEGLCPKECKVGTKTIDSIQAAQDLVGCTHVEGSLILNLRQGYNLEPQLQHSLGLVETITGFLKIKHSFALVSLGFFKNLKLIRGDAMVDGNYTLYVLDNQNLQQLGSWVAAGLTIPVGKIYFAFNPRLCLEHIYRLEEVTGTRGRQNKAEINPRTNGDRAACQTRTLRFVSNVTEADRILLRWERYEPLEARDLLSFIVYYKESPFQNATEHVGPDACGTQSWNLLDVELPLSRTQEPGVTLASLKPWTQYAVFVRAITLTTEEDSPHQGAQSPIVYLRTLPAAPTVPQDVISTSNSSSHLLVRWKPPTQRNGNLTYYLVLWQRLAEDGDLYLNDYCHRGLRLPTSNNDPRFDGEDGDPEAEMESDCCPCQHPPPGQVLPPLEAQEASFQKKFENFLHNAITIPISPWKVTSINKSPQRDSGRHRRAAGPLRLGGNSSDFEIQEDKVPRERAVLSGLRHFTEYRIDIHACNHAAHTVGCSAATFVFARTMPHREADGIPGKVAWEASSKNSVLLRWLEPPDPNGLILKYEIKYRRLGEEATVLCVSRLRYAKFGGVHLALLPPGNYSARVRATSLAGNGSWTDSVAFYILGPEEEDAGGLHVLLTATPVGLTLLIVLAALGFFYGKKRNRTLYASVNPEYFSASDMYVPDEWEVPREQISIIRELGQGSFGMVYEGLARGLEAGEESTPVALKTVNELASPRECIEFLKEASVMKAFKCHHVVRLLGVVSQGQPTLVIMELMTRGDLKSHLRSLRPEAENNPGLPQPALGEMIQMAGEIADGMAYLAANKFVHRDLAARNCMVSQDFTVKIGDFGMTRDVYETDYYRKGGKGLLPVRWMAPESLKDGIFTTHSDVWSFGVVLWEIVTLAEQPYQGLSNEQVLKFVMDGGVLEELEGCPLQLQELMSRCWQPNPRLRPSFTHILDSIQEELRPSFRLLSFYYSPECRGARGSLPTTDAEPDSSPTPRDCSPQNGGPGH
HIPK2 (human), sequence (Q9H2X6 whole entry, looked up): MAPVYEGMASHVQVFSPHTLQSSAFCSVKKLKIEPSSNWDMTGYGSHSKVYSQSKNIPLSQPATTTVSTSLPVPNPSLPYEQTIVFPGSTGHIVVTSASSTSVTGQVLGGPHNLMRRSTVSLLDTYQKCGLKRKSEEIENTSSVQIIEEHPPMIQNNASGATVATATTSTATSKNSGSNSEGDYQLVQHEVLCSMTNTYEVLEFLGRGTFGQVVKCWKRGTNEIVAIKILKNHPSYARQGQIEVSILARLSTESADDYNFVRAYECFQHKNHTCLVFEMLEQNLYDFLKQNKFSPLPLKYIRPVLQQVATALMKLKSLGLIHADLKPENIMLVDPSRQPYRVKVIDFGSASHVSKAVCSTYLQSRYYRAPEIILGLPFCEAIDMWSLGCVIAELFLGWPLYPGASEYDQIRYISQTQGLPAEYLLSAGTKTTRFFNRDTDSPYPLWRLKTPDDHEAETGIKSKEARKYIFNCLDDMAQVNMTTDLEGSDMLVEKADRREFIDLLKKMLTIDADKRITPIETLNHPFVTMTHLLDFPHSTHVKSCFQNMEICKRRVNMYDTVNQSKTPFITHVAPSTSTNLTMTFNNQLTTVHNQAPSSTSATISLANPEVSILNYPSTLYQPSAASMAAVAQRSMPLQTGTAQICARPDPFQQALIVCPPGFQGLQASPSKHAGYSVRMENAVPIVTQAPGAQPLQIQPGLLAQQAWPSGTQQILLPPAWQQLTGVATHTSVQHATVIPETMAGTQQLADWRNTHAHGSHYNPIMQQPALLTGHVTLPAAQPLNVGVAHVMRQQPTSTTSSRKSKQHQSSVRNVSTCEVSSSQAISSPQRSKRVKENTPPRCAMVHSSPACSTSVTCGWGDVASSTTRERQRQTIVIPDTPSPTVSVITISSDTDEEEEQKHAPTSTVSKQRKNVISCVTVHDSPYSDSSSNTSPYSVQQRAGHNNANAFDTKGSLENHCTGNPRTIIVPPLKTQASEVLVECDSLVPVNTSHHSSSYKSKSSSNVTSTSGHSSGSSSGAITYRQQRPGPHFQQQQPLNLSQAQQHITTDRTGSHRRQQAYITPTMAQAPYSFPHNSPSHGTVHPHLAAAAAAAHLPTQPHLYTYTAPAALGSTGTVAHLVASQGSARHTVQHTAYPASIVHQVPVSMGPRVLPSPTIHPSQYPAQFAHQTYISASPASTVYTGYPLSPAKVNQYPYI
MATK (human), sequence (P42679 whole entry, looked up): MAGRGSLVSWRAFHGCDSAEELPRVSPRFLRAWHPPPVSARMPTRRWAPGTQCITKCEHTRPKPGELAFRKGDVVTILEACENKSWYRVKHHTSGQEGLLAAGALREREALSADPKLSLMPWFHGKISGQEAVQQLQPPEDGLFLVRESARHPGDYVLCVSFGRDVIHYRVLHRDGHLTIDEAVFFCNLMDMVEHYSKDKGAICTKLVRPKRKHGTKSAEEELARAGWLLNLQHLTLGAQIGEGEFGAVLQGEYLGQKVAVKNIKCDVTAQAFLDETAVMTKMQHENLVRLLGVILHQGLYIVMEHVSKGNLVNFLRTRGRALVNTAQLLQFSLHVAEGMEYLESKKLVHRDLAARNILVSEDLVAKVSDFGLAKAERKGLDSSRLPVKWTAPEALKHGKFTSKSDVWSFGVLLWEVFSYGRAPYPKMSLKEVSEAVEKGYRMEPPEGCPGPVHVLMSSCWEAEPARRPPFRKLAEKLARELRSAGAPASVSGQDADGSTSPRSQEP
RPS6KA1 KD1 KD2 (human), sequence (Q15418 whole entry, looked up): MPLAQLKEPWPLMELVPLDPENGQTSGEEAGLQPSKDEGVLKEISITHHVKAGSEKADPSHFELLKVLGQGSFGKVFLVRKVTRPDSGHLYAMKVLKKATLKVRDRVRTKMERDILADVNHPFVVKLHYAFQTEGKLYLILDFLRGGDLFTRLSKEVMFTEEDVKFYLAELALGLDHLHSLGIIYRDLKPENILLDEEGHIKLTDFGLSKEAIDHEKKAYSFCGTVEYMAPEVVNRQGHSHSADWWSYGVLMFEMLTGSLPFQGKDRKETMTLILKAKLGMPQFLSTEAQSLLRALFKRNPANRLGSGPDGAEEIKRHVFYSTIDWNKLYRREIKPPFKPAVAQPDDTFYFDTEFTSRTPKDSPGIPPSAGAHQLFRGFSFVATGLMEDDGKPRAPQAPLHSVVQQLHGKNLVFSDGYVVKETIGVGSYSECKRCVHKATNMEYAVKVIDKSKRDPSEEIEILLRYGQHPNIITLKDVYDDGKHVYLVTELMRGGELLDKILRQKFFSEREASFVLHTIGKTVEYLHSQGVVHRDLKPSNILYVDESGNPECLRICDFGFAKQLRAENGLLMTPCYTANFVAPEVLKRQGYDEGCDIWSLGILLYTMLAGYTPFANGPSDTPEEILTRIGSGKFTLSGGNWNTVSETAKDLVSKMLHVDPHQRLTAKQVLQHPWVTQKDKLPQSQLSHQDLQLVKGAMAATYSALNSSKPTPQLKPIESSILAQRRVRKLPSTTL
ULK3 (human), sequence (Q6PHR2 whole entry, looked up): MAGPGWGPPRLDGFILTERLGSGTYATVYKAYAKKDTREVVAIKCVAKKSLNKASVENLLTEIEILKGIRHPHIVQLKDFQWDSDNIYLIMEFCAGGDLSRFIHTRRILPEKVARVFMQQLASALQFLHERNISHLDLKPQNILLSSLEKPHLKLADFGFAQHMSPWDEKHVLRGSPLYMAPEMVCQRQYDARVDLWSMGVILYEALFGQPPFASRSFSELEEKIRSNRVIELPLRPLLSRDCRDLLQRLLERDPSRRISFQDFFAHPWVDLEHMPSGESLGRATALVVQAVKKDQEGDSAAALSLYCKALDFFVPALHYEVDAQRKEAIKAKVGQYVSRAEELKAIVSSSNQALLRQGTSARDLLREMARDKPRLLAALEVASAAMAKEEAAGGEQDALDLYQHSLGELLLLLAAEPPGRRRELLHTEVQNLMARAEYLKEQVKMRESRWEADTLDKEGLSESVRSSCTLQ
DYRK2 (human), sequence (Q92630 whole entry, looked up): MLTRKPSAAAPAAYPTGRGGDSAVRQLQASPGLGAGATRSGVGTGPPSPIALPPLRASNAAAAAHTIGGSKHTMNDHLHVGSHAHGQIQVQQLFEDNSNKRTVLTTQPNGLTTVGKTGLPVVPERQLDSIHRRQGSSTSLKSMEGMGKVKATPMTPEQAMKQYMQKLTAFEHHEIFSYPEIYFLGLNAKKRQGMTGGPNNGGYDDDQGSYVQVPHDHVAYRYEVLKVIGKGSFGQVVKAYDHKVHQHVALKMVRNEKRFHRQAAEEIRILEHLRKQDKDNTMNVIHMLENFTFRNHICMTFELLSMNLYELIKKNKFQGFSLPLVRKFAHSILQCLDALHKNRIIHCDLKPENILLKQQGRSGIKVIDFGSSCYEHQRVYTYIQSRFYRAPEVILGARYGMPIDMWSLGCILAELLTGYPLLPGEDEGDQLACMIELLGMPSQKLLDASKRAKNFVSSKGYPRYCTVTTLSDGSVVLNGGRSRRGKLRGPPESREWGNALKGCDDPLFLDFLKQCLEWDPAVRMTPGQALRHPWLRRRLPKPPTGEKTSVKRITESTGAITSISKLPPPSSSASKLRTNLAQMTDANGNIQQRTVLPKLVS

SMILES: C[C@@H]1CCN(C(=O)CC#N)C[C@@H]1N(C)c1ncnc2[nH]ccc12
residual activity (CHUK (human)): 95% | residual activity (MKNK2 (human)): 97.4% | residual activity (HIPK2 (human)): 96.9% | residual activity (EPHB2 (human)): 100% | residual activity (CAMKK2 (human)): 97.7% | residual activity (MAPK10 (human)): 100% | residual activity (MATK (human)): 66.9% | residual activity (TAOK3 (human)): 94.9% | residual activity (CDK7 CCNH MNAT1 (human)): 119% | residual activity (ERBB4 (human)): 100% | residual activity (GRK5 (human)): 107% | residual activity (STK38 (human)): 95.7% | residual activity (INSRR (human)): 97.5% | residual activity (CSNK1A1 (human)): 99.7% | residual activity (CDC42BPA (human)): 110% | residual activity (NEK1 (human)): 84.6% | residual activity (AKT3 (human)): 85.8% | residual activity (PTK6 (human)): 101% | residual activity (CSNK1G2 (human)): 95.4% | residual activity (CDK3 CCNE1 (human)): 92.3% | residual activity (GRK7 (human)): 102% | residual activity (STK24 (human)): 96.1% | residual activity (RPS6KA1 KD1 KD2 (human)): 90.9% | residual activity (ULK3 (human)): 101% | residual activity (GRK6 (human)): 101% | residual activity (DYRK2 (human)): 112% | residual activity (TEC (human)): 95.4% | residual activity (PLK2 (human)): 102% | residual activity (PRKACG (human)): 111% | residual activity (PHKG1 (human)): 90% | residual activity (TAOK2 (human)): 100% | residual activity (EPHA6 (human)): 99% | residual activity (MARK1 (human)): 119% | residual activity (HIPK1 (human)): 98.1% | residual activity (NUAK1 (human)): 71.2% | residual activity (TTK (human)): 108% | residual activity (CAMK2D (human)): 98.2% | residual activity (TLK2 (human)): 94.4% | residual activity (PAK6 (human)): 102%

SMILES: N#Cc1c[nH]c2c[nH]/c(=N\Cc3cccnc3)cc2/c1=N\c1ccc(F)c(Cl)c1
residual activity (CHUK (human)): 96.3% | residual activity (MKNK2 (human)): 79.3% | residual activity (HIPK2 (human)): 93.2% | residual activity (EPHB2 (human)): 97.4% | residual activity (CAMKK2 (human)): 90.1% | residual activity (MAPK10 (human)): 95% | residual activity (MATK (human)): 95.9% | residual activity (TAOK3 (human)): 99.2% | residual activity (CDK7 CCNH MNAT1 (human)): 87.4% | residual activity (ERBB4 (human)): 72.6% | residual activity (STK38 (human)): 93.9% | residual activity (INSRR (human)): 97% | residual activity (CSNK1A1 (human)): 101% | residual activity (CAMK1D (human)): 97.8% | residual activity (CDC42BPA (human)): 80% | residual activity (NEK1 (human)): 20.5% | residual activity (AKT3 (human)): 95.1% | residual activity (PTK6 (human)): 84.1% | residual activity (CSNK1G2 (human)): 102% | residual activity (CDK3 CCNE1 (human)): 95.6% | residual activity (GRK7 (human)): 95.5% | residual activity (STK24 (human)): 95.6% | residual activity (RPS6KA1 KD1 KD2 (human)): 94.6% | residual activity (ULK3 (human)): 72% | residual activity (GRK6 (human)): 106% | residual activity (DYRK2 (human)): 95.5% | residual activity (TEC (human)): 118% | residual activity (PLK2 (human)): 110% | residual activity (PRKACG (human)): 115% | residual activity (PHKG1 (human)): 92% | residual activity (TAOK2 (human)): 86.1% | residual activity (EPHA6 (human)): 76.2% | residual activity (MARK1 (human)): 91.6% | residual activity [1]: 93.6% | residual activity (HIPK1 (human)): 98.6% | residual activity (NUAK1 (human)): 103% | residual activity (TTK (human)): 99.1% | residual activity (CAMK2D (human)): 103% | residual activity (TLK2 (human)): 106% | residual activity (PAK6 (human)): 104%

SMILES: COc1ccc2c(c1)/C(=C/c1cnc[nH]1)C(O)=N2
residual activity (CHUK (human)): 110% | residual activity (MKNK2 (human)): 84.9% | residual activity (HIPK2 (human)): 100% | residual activity (EPHB2 (human)): 100% | residual activity (CAMKK2 (human)): 89.5% | residual activity (MAPK10 (human)): 105% | residual activity (MATK (human)): 92.3% | residual activity (TAOK3 (human)): 44% | residual activity (CDK7 CCNH MNAT1 (human)): 84.2% | residual activity (ERBB4 (human)): 106% | residual activity (GRK5 (human)): 97% | residual activity (STK38 (human)): 86.2% | residual activity (INSRR (human)): 97.8% | residual activity (CSNK1A1 (human)): 86.4% | residual activity (CAMK1D (human)): 98.3% | residual activity (CDC42BPA (human)): 98.5% | residual activity (NEK1 (human)): 84.4% | residual activity (AKT3 (human)): 101% | residual activity (PTK6 (human)): 87.7% | residual activity (CSNK1G2 (human)): 95.3% | residual activity (CDK3 CCNE1 (human)): 35.2% | residual activity (GRK7 (human)): 99.7% | residual activity (STK24 (human)): 53.1% | residual activity (RPS6KA1 KD1 KD2 (human)): 69.6% | residual activity (ULK3 (human)): 67.9% | residual activity (GRK6 (human)): 85.2% | residual activity (DYRK2 (human)): 76.9% | residual activity (TEC (human)): 91.6% | residual activity (PLK2 (human)): 95.2% | residual activity (PRKACG (human)): 110% | residual activity (PHKG1 (human)): 53.8% | residual activity (TAOK2 (human)): 81.8% | residual activity (EPHA6 (human)): 91.3% | residual activity (MARK1 (human)): 50.4% | residual activity [1]: 83.8% | residual activity (HIPK1 (human)): 98.9% | residual activity (NUAK1 (human)): 8.87% | residual activity (EGFR (human)): 99.4% | residual activity (TTK (human)): 59.9% | residual activity (CAMK2D (human)): 78.8% | residual activity (PAK6 (human)): 101%

SMILES: CS(=O)(=O)CCNCc1ccc(-c2ccc3ncnc(Nc4ccc(OCc5cccc(F)c5)c(Cl)c4)c3c2)o1
residual activity (CHUK (human)): 99.5% | residual activity (MKNK2 (human)): 97.3% | residual activity (HIPK2 (human)): 104% | residual activity (EPHB2 (human)): 101% | residual activity (CAMKK2 (human)): 101% | residual activity (MAPK10 (human)): 100% | residual activity (MATK (human)): 75.9% | residual activity (TAOK3 (human)): 101% | residual activity (CDK7 CCNH MNAT1 (human)): 109% | residual activity (ERBB4 (human)): 11.2% | residual activity (GRK5 (human)): 97.2% | residual activity (STK38 (human)): 101% | residual activity (INSRR (human)): 104% | residual activity (CSNK1A1 (human)): 104% | residual activity (CAMK1D (human)): 104% | residual activity (CDC42BPA (human)): 88.2% | residual activity (NEK1 (human)): 71.8% | residual activity (AKT3 (human)): 83.5% | residual activity (PTK6 (human)): 103% | residual activity (CSNK1G2 (human)): 99.5% | residual activity (CDK3 CCNE1 (human)): 94.6% | residual activity (GRK7 (human)): 95.8% | residual activity (STK24 (human)): 106% | residual activity (RPS6KA1 KD1 KD2 (human)): 105% | residual activity (ULK3 (human)): 106% | residual activity (GRK6 (human)): 101% | residual activity (DYRK2 (human)): 102% | residual activity (TEC (human)): 101% | residual activity (PLK2 (human)): 103% | residual activity (PRKACG (human)): 110% | residual activity (PHKG1 (human)): 95.7% | residual activity (TAOK2 (human)): 105% | residual activity (EPHA6 (human)): 115% | residual activity (MARK1 (human)): 149% | residual activity [1]: 98% | residual activity (HIPK1 (human)): 97.1% | residual activity (NUAK1 (human)): 108% | residual activity (TTK (human)): 102% | residual activity (CAMK2D (human)): 92.5% | residual activity (TLK2 (human)): 83.9% | residual activity (PAK6 (human)): 106%

residual activity (HIPK2 (human)): 106% | residual activity (CAMKK2 (human)): 3.9% | residual activity (MAPK10 (human)): 98.9% | residual activity (MATK (human)): 113% | residual activity (TAOK3 (human)): 38.1% | residual activity (GRK5 (human)): 93.3% | residual activity (STK38 (human)): 83.8% | residual activity (INSRR (human)): 96.2% | residual activity (CSNK1A1 (human)): 96.2% | residual activity (CDC42BPA (human)): 96% | residual activity (NEK1 (human)): 66.2% | residual activity (AKT3 (human)): 55.1% | residual activity (PTK6 (human)): 96.2% | residual activity (CSNK1G2 (human)): 98.3% | residual activity (CDK3 CCNE1 (human)): 81.9% | residual activity (GRK7 (human)): 15.5% | residual activity (STK24 (human)): 39.1% | residual activity (RPS6KA1 KD1 KD2 (human)): 0.432% | residual activity (ULK3 (human)): 37% | residual activity (DYRK2 (human)): 108% | residual activity (TEC (human)): 106% | residual activity (PLK2 (human)): 97.5% | residual activity (PRKACG (human)): 58.1% | residual activity (PHKG1 (human)): 2.34% | residual activity (TAOK2 (human)): 86.2% | residual activity (EPHA6 (human)): 79.5% | residual activity (MARK1 (human)): 4.09% | residual activity [1]: 16.3% | residual activity (HIPK1 (human)): 101% | residual activity (NUAK1 (human)): 2.71% | residual activity (TTK (human)): 55% | residual activity (CAMK2D (human)): 17.3% | residual activity (TLK2 (human)): 75% | residual activity (PAK6 (human)): 96.4%
SMILES: CO[C@@H]1[C@H](N(C)C(=O)c2ccccc2)C[C@H]2O[C@]1(C)n1c3ccccc3c3c4c(c5c6ccccc6n2c5c31)C(=O)NC4
